In PubChem BioAssay AID2060622 (Molecular Pharmacology Branch, DTP, NCI, 2025):
Values joined by “and” are separate entries in the source; they are usually repeats but may differ in a detail not shown here. Equal entries are not always repeated. Each block holds one compound with its values, some of them ahead of it.

System: 242566-281-R-J2-PDC complex spheroid viability
Test: Anticancer human tumor 242566-281-R-J2-PDC patient-derived pancreatic carcinoma cell line growth inhibition [CLK]
Conditions: for viability, T/C: stronger effect = lower value
In short: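 Patient-derived tumor cells grown as complex spheroids with HUVEC endothelial cells and mesenchymal stem cells, treated with drug combinations. Concentrations descend in half-log steps from near clinical Cmax, or from 10 microM if Cmax unknown.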

[1] = curve of first compound, second compound 0.0316 µM
[2] = curve of first compound, second compound 0.1 µM
[3] = curve of first compound, second compound 0.316 µM
[4] = curve of first compound, second compound 1 µM
[5] = curve of first compound, second compound 3.16 µM
[6] = curve of first compound, second compound 10 µM
[7] = second compound 0.0316 µM, first compound 0.0316 µM
[8] = second compound 0.0316 µM, first compound 0.1 µM
[9] = second compound 0.0316 µM, first compound 0.316 µM
[10] = second compound 0.0316 µM, first compound 1 µM
[11] = second compound 0.0316 µM, first compound 3.16 µM
[12] = second compound 0.0316 µM, first compound 10 µM
[13] = second compound 0.1 µM, first compound 0.0316 µM
[14] = second compound 0.1 µM, first compound 0.1 µM
[15] = second compound 0.1 µM, first compound 0.316 µM
[16] = second compound 0.1 µM, first compound 1 µM
[17] = second compound 0.1 µM, first compound 3.16 µM
[18] = second compound 0.1 µM, first compound 10 µM
[19] = second compound 0.316 µM, first compound 0.0316 µM
[20] = second compound 0.316 µM, first compound 0.1 µM
[21] = second compound 0.316 µM, first compound 0.316 µM
[22] = second compound 0.316 µM, first compound 1 µM
[23] = second compound 0.316 µM, first compound 3.16 µM
[24] = second compound 0.316 µM, first compound 10 µM
[25] = second compound 1 µM, first compound 0.0316 µM
[26] = second compound 1 µM, first compound 0.1 µM
[27] = second compound 1 µM, first compound 0.316 µM
[28] = second compound 1 µM, first compound 1 µM
[29] = second compound 1 µM, first compound 3.16 µM
[30] = second compound 1 µM, first compound 10 µM
[31] = second compound 3.16 µM, first compound 0.0316 µM
[32] = second compound 3.16 µM, first compound 0.1 µM
[33] = second compound 3.16 µM, first compound 0.316 µM
[34] = second compound 3.16 µM, first compound 1 µM
[35] = second compound 3.16 µM, first compound 3.16 µM
[36] = second compound 3.16 µM, first compound 10 µM
[37] = second compound 10 µM, first compound 0.0316 µM
[38] = second compound 10 µM, first compound 0.1 µM
[39] = second compound 10 µM, first compound 0.316 µM
[40] = second compound 10 µM, first compound 1 µM
[41] = second compound 10 µM, first compound 3.16 µM
[42] = second compound 10 µM, first compound 10 µM
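Also: spheroids exposed to compounds for 7 days before readout.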
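For viability, T/C in this document: 100% = DMSO vehicle control wells.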

IC50 [1]: > 10000 nM | IC50 [2]: > 10000 nM | IC50 [3]: > 10000 nM | IC50 [4]: > 10000 nM | IC50 [5]: > 10000 nM | IC50 [6]: > 10000 nM
SMILES: C=CC(=O)N1CCN(c2nc(=O)n(-c3c(C)ccnc3C(C)C)c3nc(-c4c(O)cccc4F)c(F)cc23)C(C)C1 (stereo not given) + CNC(=O)c1ccc(Nc2nc(OC3CCCC3)c3c(-c4ccc5nc(C)oc5c4)c[nH]c3n2)c(OC)c1
viability, T/C [7]: 104% | viability, T/C [8]: 94% | viability, T/C [9]: 120% | viability, T/C [10]: 128% | viability, T/C [11]: 89% | viability, T/C [12]: 73.9% | viability, T/C [13]: 101% | viability, T/C [14]: 115% | viability, T/C [15]: 87.7% | viability, T/C [16]: 104% | viability, T/C [17]: 88.1% | viability, T/C [18]: 70.9% | viability, T/C [19]: 95.7% | viability, T/C [20]: 92% | viability, T/C [21]: 74.3% | viability, T/C [22]: 87.1% | viability, T/C [23]: 71.1% | viability, T/C [24]: 67.3% | viability, T/C [25]: 79.3% | viability, T/C [26]: 68.1% | viability, T/C [27]: 72.5% | viability, T/C [28]: 69.6% | viability, T/C [29]: 70.7% | viability, T/C [30]: 57.2% | viability, T/C [31]: 60.5% | viability, T/C [32]: 52.6% | viability, T/C [33]: 52.9% | viability, T/C [34]: 56.4% | viability, T/C [35]: 58.1% | viability, T/C [36]: 54.8% | viability, T/C [37]: 54.5% | viability, T/C [38]: 53.6% | viability, T/C [39]: 58.8% | viability, T/C [40]: 53% | viability, T/C [41]: 53.6% | viability, T/C [42]: 51.8%

IC50 [1]: > 300 nM | IC50 [2]: > 300 nM | IC50 [3]: > 300 nM | IC50 [4]: > 300 nM | IC50 [5]: 2.72 nM | IC50 [6]: 3.17 nM
SMILES: C=CC(=O)Nc1cc(Nc2nccc(-c3cn(C)c4ccccc34)n2)c(OC)cc1N(C)CCN(C)C + CNC(=O)c1ccc(Nc2nc(OC3CCCC3)c3c(-c4ccc5nc(C)oc5c4)c[nH]c3n2)c(OC)c1
viability, T/C (second compound 0.0316 µM, first compound 0.000949 µM): 83.7% | viability, T/C (second compound 0.0316 µM, first compound 0.003 µM): 97% | viability, T/C (second compound 0.0316 µM, first compound 0.00949 µM): 101% | viability, T/C (second compound 0.0316 µM, first compound 0.03 µM): 108% | viability, T/C (second compound 0.0316 µM, first compound 0.0949 µM): 110% | viability, T/C (second compound 0.0316 µM, first compound 0.3 µM): 92.8% | viability, T/C (second compound 0.1 µM, first compound 0.000949 µM): 96.1% | viability, T/C (second compound 0.1 µM, first compound 0.003 µM): 81.7% | viability, T/C (second compound 0.1 µM, first compound 0.00949 µM): 80.1% | viability, T/C (second compound 0.1 µM, first compound 0.03 µM): 99.5% | viability, T/C (second compound 0.1 µM, first compound 0.0949 µM): 95.5% | viability, T/C (second compound 0.1 µM, first compound 0.3 µM): 81.4% | viability, T/C (second compound 0.316 µM, first compound 0.000949 µM): 89.4% | viability, T/C (second compound 0.316 µM, first compound 0.003 µM): 76% | viability, T/C (second compound 0.316 µM, first compound 0.00949 µM): 72.2% | viability, T/C (second compound 0.316 µM, first compound 0.03 µM): 77.6% | viability, T/C (second compound 0.316 µM, first compound 0.0949 µM): 81.4% | viability, T/C (second compound 0.316 µM, first compound 0.3 µM): 80.2% | viability, T/C (second compound 1 µM, first compound 0.000949 µM): 69.7% | viability, T/C (second compound 1 µM, first compound 0.003 µM): 59% | viability, T/C (second compound 1 µM, first compound 0.00949 µM): 58.9% | viability, T/C (second compound 1 µM, first compound 0.03 µM): 61.8% | viability, T/C (second compound 1 µM, first compound 0.0949 µM): 63.7% | viability, T/C (second compound 1 µM, first compound 0.3 µM): 57.5% | viability, T/C (second compound 3.16 µM, first compound 0.000949 µM): 55.9% | viability, T/C (second compound 3.16 µM, first compound 0.003 µM): 50% | viability, T/C (second compound 3.16 µM, first compound 0.00949 µM): 45.7% | viability, T/C (second compound 3.16 µM, first compound 0.03 µM): 51.9% | viability, T/C (second compound 3.16 µM, first compound 0.0949 µM): 46.4% | viability, T/C (second compound 3.16 µM, first compound 0.3 µM): 48.8% | viability, T/C (second compound 10 µM, first compound 0.000949 µM): 49.1% | viability, T/C (second compound 10 µM, first compound 0.003 µM): 51.2% | viability, T/C (second compound 10 µM, first compound 0.00949 µM): 51.1% | viability, T/C (second compound 10 µM, first compound 0.03 µM): 47.7% | viability, T/C (second compound 10 µM, first compound 0.0949 µM): 43.1% | viability, T/C (second compound 10 µM, first compound 0.3 µM): 44.9%

More lines, now with the values behind:

SMILES: CC(CO)NC(=O)c1cc(-c2ccc(Cl)cc2)nn(-c2cnn(C)c2)c1=O (stereo not given) + CN1CCN(c2cc(C(=O)Nc3cc4cc(-c5cnn(C)c5)ccc4cn3)ccn2)CC1
IC50 [1]: > 10000 nM | IC50 [2]: > 10000 nM | IC50 [3]: < 31.6 nM | IC50 [4]: < 31.6 nM | IC50 [5]: < 31.6 nM | IC50 [6]: < 31.6 nM | viability, T/C [7]: 95.6% | viability, T/C [8]: 117% | viability, T/C [9]: 129% | viability, T/C [10]: 106% | viability, T/C [11]: 101% | viability, T/C [12]: 93.6% | viability, T/C [13]: 93.5% | viability, T/C [14]: 104% | viability, T/C [15]: 87.3% | viability, T/C [16]: 94% | viability, T/C [17]: 101% | viability, T/C [18]: 72.3% | viability, T/C [19]: 38.2% | viability, T/C [20]: 43% | viability, T/C [21]: 39.9% | viability, T/C [22]: 36.5% | viability, T/C [23]: 41.5% | viability, T/C [24]: 37.6% | viability, T/C [25]: 4.91% | viability, T/C [26]: 5.11% | viability, T/C [27]: 5.14% | viability, T/C [28]: 5.04% | viability, T/C [29]: 4.52% | viability, T/C [30]: 4.45% | viability, T/C [31]: 6.35% | viability, T/C [32]: 7.68% | viability, T/C [33]: 8.66% | viability, T/C [34]: 7.21% | viability, T/C [35]: 7.5% | viability, T/C [36]: 6.89% | viability, T/C [37]: 2.09% | viability, T/C [38]: 2.51% | viability, T/C [39]: 2.07% | viability, T/C [40]: 2.91% | viability, T/C [41]: 2.05% | viability, T/C [42]: 0.93%

SMILES: COc1c(OCCCN2CCOCC2)ccc2c3n(c(=NC(=O)c4cnc(N)nc4)nc12)CCN3 + CNC(=O)c1ccc(Nc2nc(OC3CCCC3)c3c(-c4ccc5nc(C)oc5c4)c[nH]c3n2)c(OC)c1
IC50 [1]: 50.9 nM | IC50 [2]: 52 nM | IC50 [3]: 29 nM | IC50 [4]: 8.6 nM | IC50 [5]: < 3.16 nM | IC50 [6]: < 3.16 nM | viability, T/C (second compound 0.0316 µM, first compound 0.00316 µM): 104% | viability, T/C (second compound 0.0316 µM, first compound 0.01 µM): 86.1% | viability, T/C [7]: 64.7% | viability, T/C [8]: 31.1% | viability, T/C [9]: 19.5% | viability, T/C [10]: 14.2% | viability, T/C (second compound 0.1 µM, first compound 0.00316 µM): 72.9% | viability, T/C (second compound 0.1 µM, first compound 0.01 µM): 98.3% | viability, T/C [13]: 64.4% | viability, T/C [14]: 29.2% | viability, T/C [15]: 18.8% | viability, T/C [16]: 14.4% | viability, T/C (second compound 0.316 µM, first compound 0.00316 µM): 81.4% | viability, T/C (second compound 0.316 µM, first compound 0.01 µM): 70.9% | viability, T/C [19]: 48.8% | viability, T/C [20]: 23.9% | viability, T/C [21]: 15.1% | viability, T/C [22]: 10.7% | viability, T/C (second compound 1 µM, first compound 0.00316 µM): 61.5% | viability, T/C (second compound 1 µM, first compound 0.01 µM): 47% | viability, T/C [25]: 31.2% | viability, T/C [26]: 14.6% | viability, T/C [27]: 9.5% | viability, T/C [28]: 10.9% | viability, T/C (second compound 3.16 µM, first compound 0.00316 µM): 42.9% | viability, T/C (second compound 3.16 µM, first compound 0.01 µM): 33.5% | viability, T/C [31]: 24.6% | viability, T/C [32]: 12.5% | viability, T/C [33]: 9.35% | viability, T/C [34]: 10.2% | viability, T/C (second compound 10 µM, first compound 0.00316 µM): 39.3% | viability, T/C (second compound 10 µM, first compound 0.01 µM): 32.5% | viability, T/C [37]: 25% | viability, T/C [38]: 11.4% | viability, T/C [39]: 8.81% | viability, T/C [40]: 10.2%

SMILES: COc1ccc([C@@H](O)c2cc(-c3ncnc4cc(N5CCOCC5)ccc34)c(F)cc2Cl)nn1
viability, T/C (compound 0.0316 µM): 112% and 89.3% | viability, T/C (compound 0.1 µM): 111% and 92.2% | viability, T/C (compound 0.316 µM): 96.7% and 104% | viability, T/C (compound 1 µM): 83.7% and 91.3% | viability, T/C (compound 3.16 µM): 77.1% and 92.4% | viability, T/C (compound 10 µM): 48.2% and 71.3% | IC50 (curve of compound): > 10000 nM
